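Briefly, cells in 96-well plates were exposed to five compound concentrations for 48 h, and endpoints were estimated by linear interpolation. The concentration for 50% growth inhibition is given as GI50. TGI marks complete inhibition of growth.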
Legend:
Assay in all cases: NCI-60 cell line screen, 48 h
[1] = test system: 786-0 renal
[2] = test system: A498 renal
[3] = test system: A549 NSCLC
[4] = test system: ACHN renal
[5] = test system: BT-549 breast
[6] = test system: CAKI-1 renal
[7] = test system: COLO 205 colon
[8] = test system: DU-145 prostate
[9] = test system: EKVX NSCLC
[10] = test system: HCC-2998 colon
[11] = test system: HCT-116 colon
[12] = test system: HCT-15 colon
[13] = test system: HL-60(TB) leukemia
[14] = test system: HOP-62 NSCLC
[15] = test system: HOP-92 NSCLC
[16] = test system: HS 578T breast
[17] = test system: HT29 colon
[18] = test system: IGROV1 ovarian
[19] = test system: KM12 colon
[20] = test system: LOX IMVI melanoma
[21] = test system: M14 melanoma
[22] = test system: MALME-3M melanoma
[23] = test system: MCF7 breast
[24] = test system: MDA-MB-231 breast
[25] = test system: MDA-MB-435
[26] = test system: MOLT-4 leukemia
[27] = test system: NCI-H226 lung
[28] = test system: NCI-H23 lung
[29] = test system: NCI-H460 lung
[30] = test system: NCI-H522 lung
[31] = test system: NCI/ADR-RES ovarian
[32] = test system: OVCAR-3 ovarian
[33] = test system: OVCAR-4 ovarian
[34] = test system: OVCAR-5 ovarian
[35] = test system: OVCAR-8 ovarian
[36] = test system: PC-3 prostate
[37] = test system: RPMI-8226 leukemia
[38] = test system: RXF 393 renal
[39] = test system: SF-268 CNS
[40] = test system: SF-295 CNS
[41] = test system: SF-539 CNS
[42] = test system: SK-MEL-2 melanoma
[43] = test system: SK-MEL-28 melanoma
[44] = test system: SK-MEL-5 melanoma
[45] = test system: SN12C renal
[46] = test system: SNB-19 CNS
[47] = test system: SNB-75 CNS
[48] = test system: SR leukemia
[49] = test system: SW-620 colon
[50] = test system: TK-10 renal
[51] = test system: U251 CNS
[52] = test system: UACC-257 melanoma
[53] = test system: UACC-62 melanoma
[54] = test system: UO-31 renal

Compound O=c1c2cc(F)ccc2sc2c(N3CCNCC3)nc3ccccc3c12 has a GI50 [1] of 1.45 µM, a TGI [1] of 2.93 µM and a GI50 [2] of 1.44 µM. It also gave a TGI [2] of 2.91 µM, a GI50 [3] of 1.65 µM and a TGI [3] of 3.54 µM. The GI50 [4] was 1.56 µM, the TGI [4] was 2.89 µM and the GI50 [5] was 7.76 µM. For the same compound, the TGI [5] was 20.9 µM, the GI50 [6] was 1.59 µM and the TGI [6] was 2.93 µM. It also gave a GI50 [7] of 1.75 µM, a TGI [7] of 4.03 µM and a GI50 [8] of 1.69 µM. The TGI [8] was 3.12 µM, the GI50 [9] was 1.55 µM and the TGI [9] was 2.98 µM. It also gave a GI50 [10] of 1.65 µM, a TGI [10] of 3.05 µM and a GI50 [11] of 1.59 µM. It also gave a TGI [11] of 3.01 µM, a GI50 [12] of 1.41 µM and a TGI [12] of 2.85 µM. It also gave a GI50 [13] of 1.9 µM, a TGI [13] of 3.72 µM and a GI50 [14] of 1.61 µM. The TGI [14] was 3.44 µM, the GI50 [15] was 0.867 µM and the TGI [15] was 2.22 µM. The GI50 [16] was 1.53 µM, the TGI [16] was 3.31 µM and the GI50 [17] was 1.64 µM. The TGI [17] was 3.35 µM, the GI50 [18] was 1.5 µM and the TGI [18] was 3.02 µM. The GI50 [19] was 1.72 µM, the TGI [19] was 3.34 µM and the GI50 [20] was 1.59 µM. For the same compound, the TGI [20] was 3.02 µM, the GI50 [21] was 1.78 µM and the TGI [21] was 3.27 µM. The GI50 [22] was 1.64 µM, the TGI [22] was 3.22 µM and the GI50 [23] was 1.7 µM. It also gave a TGI [23] of 3.27 µM, a GI50 [24] of 1.39 µM and a TGI [24] of 2.78 µM. For the same compound, the GI50 [25] was 1.65 µM, the TGI [25] was 3.05 µM and the GI50 [26] was 1.7 µM. It also gave a TGI [26] of 3.56 µM, a GI50 [27] of 1.82 µM and a TGI [27] of 3.48 µM. The GI50 [28] was 1.78 µM, the TGI [28] was 3.27 µM and the GI50 [29] was 1.49 µM. It also gave a TGI [29] of 2.99 µM, a GI50 [30] of 1.86 µM and a TGI [30] of 3.72 µM. For the same compound, the GI50 [31] was 1.69 µM, the TGI [31] was 3.22 µM and the GI50 [32] was 1.66 µM. It also gave a TGI [32] of 3.09 µM, a GI50 [33] of 1.74 µM and a TGI [33] of 3.46 µM. For the same compound, the GI50 [34] was 1.67 µM, the TGI [34] was 3.08 µM and the GI50 [35] was 1.82 µM. The TGI [35] was 4.08 µM, the GI50 [36] was 1.61 µM and the TGI [36] was 3.1 µM. The GI50 [37] was 1.77 µM, the TGI [37] was 3.77 µM and the GI50 [38] was 1.29 µM. For the same compound, the TGI [38] was 2.65 µM, the GI50 [39] was 1.55 µM and the TGI [39] was 3.18 µM. It also gave a GI50 [40] of 1.75 µM, a TGI [40] of 3.17 µM and a GI50 [41] of 1.63 µM. For the same compound, the TGI [41] was 3.05 µM, the GI50 [42] was 2.01 µM and the TGI [42] was 4 µM. For the same compound, the GI50 [43] was 1.75 µM, the TGI [43] was 3.17 µM and the GI50 [44] was 1.76 µM. The TGI [44] was 3.18 µM, the GI50 [45] was 1.59 µM and the TGI [45] was 3.04 µM. It also gave a GI50 [46] of 1.61 µM, a TGI [46] of 3.04 µM and a GI50 [47] of 1.43 µM. For the same compound, the TGI [47] was 2.8 µM, the GI50 [48] was 1.54 µM and the TGI [48] was 4.14 µM. It also gave a GI50 [49] of 1.51 µM, a TGI [49] of 3.01 µM and a GI50 [50] of 1.69 µM. For the same compound, the TGI [50] was 3.24 µM, the GI50 [51] was 1.57 µM and the TGI [51] was 3.42 µM. It also gave a GI50 [52] of 1.99 µM, a TGI [52] of 3.87 µM and a GI50 [53] of 1.69 µM. It also gave a TGI [53] of 3.09 µM, a GI50 [54] of 1.37 µM and a TGI [54] of 2.71 µM.
